Read-outs that look alike come from different tables or passages of the source.

Assay [1] relates to TNF-α, U937 human histiocytic lymphoma cell line. In words: LPS stimulation of TNF production by U937 cells. Type of assay: cell-based. To be noted: for IC50: read-out: U937 Cell IC50; for U937 Cell % inhib @ conc.: U937 cells stimulated with LPS; for inhibition at 1 µM: U-937, @ 1.0 uM, read-out: U937 Cell % inhib @ conc. As for the experimental part: Maintenance and Differentiation of the U937 Human Histiocytic Lymphoma Cell Line:
Fifty million cells in 100 ml media were induced to terminal monocytic differentiation by 24 hour incubation with 20 ng/ml phorbol 12-myristate 13-acetate (Sigma). The cells were washed by centrifugation (200×g for 5 min) and resuspended in 100 ml fresh medium. After 24-48 hours, the cells were harvested, centrifuged, and resuspended in culture medium at 2 million cells/ml.
LPS Stimulation of TNF Production by U937 Cells:
Compounds were prepared as 10 mM stock solutions in DMSO and diluted in culture medium to yield a final DMSO concentration of 0.1% in the cell assay. LPS (E coli, 100 ng/ml final concentration) was then added at a volume of 0.02 ml. After 4 hour incubation at 37° C., the amount of TNF-α released in the culture medium was quantitated by ELISA. Inhibitory potency is expressed as IC50 (μM).
In vitro whole cell assay for measuring the ability of the compounds to inhibit TNF production in human U937 cells stimulated with LPS are shown in the column identified as: • “U937 Cell IC50, uM or % inhib @ conc., (uM)”

The next assay deals with T1, human p38 kinase alpha (Homo sapiens, UniProt Q16539).
T1 construct: GST (N, cleaved yes); made in house; host or cells: E. coli DH10B
In words: p38 kinase in vitro assay, phosphorylation of biotinylated PHAS-I with 32P-ATP. Conditions: for inhibition at 1 µM: read-out: P38 alpha kinase % inhib @ conc.; for IC50: in vitro P38-alpha kinase inhibition, read-out: P38 alpha kinase IC50. The class given is biochemical.

Where [2] appears, read: Homo sapiens, U-937, TNF production, human U937 cells stimulated with LPS.
[3] abbreviates: TNF production, human U937 cells stimulated with LPS.
The mark [4] stands for this setting: Homo sapiens, TNF production in human U937 cells stimulated with LPS.

T1 sequence (Q16539 whole entry): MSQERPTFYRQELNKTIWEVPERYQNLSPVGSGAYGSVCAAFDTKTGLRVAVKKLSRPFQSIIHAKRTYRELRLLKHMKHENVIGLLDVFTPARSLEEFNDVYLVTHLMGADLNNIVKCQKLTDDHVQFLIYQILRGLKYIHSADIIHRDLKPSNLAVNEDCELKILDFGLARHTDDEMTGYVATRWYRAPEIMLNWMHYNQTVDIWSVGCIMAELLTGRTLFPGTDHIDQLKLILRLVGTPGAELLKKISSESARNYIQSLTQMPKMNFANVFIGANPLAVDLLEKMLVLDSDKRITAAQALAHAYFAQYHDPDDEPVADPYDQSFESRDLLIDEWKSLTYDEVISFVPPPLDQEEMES

Consider `O=C(NCc1[nH]nc(-c2ccc(F)cc2)c1-c1ccncc1)c1ccc(F)cc1` [Example B-0042], for which the IC50 in assay [1] (setting [2]) is 2.76 µM. The inhibition at 1 µM on human p38 kinase alpha (@ 1.0 uM) was found to be 94%.

`O=C(NCc1[nH]nc(-c2ccc(F)cc2)c1-c1ccncc1)c1ccc(F)c(F)c1` [Example B-0045]: the IC50 in assay [1] (setting [2]) came out at 1.01 µM. In addition, the inhibition at 1 µM on human p38 kinase alpha (@ 1.0 uM) turned out to be 94%.

Consider `O=C(NCc1[nH]nc(-c2ccc(F)cc2)c1-c1ccncc1)c1cccc(CCl)c1` [Example B-0065], for which the “U937 Cell % inhib @ conc.” value in assay [1] (@ 1.0 uM, TNF production) is listed as 21.0% @. Also, the “P38 alpha kinase % inhib @ conc.” value on human p38 kinase alpha (@ 1.0 uM) stood at 83% @.

`O=[N+]([O-])c1ccc(S(=O)(=O)NCc2[nH]nc(-c3ccc(F)cc3)c2-c2ccncc2)cc1` [Example B-0115]: in assay [1] (@ 1.0 uM, TNF production), the “U937 Cell % inhib @ conc.” value was 2.0% @. At human p38 kinase alpha (@ 1.0 uM), the “P38 alpha kinase % inhib @ conc.” value was 47.0% @.

Take `C=Cc1ccc(S(=O)(=O)NCc2[nH]nc(-c3ccc(F)cc3)c2-c2ccncc2)cc1` [Example B-0140]: the “U937 Cell % inhib @ conc.” value in assay [1] (@ 1.0 uM, TNF production) is listed as 9.0% @. Further, the “P38 alpha kinase % inhib @ conc.” value at human p38 kinase alpha (@ 10.0 uM) was 67% @.

As for `O=S(=O)(NCc1[nH]nc(-c2ccc(F)cc2)c1-c1ccncc1)c1ccc(OC(F)F)cc1` [Example B-0143], the IC50 in assay [1] (setting [3]) amounted to 3.63 µM. In addition, the “P38 alpha kinase % inhib @ conc.” value at human p38 kinase alpha (@ 1.0 uM) stood at 42.0% @.

Consider `CCOC(=O)C(CCSC)NC(=O)NCc1[nH]nc(-c2ccc(F)cc2)c1-c1ccncc1` (stereo not shown) [Example B-0147], for which the “U937 Cell % inhib @ conc.” value in assay [1] (@ 1.0 uM, TNF production) amounted to 22.0% @. The “P38 alpha kinase % inhib @ conc.” value at human p38 kinase alpha (@ 1.0 uM) stood at 44.0% @.

Consider `CCOC(=O)NC(=O)NCc1[nH]nc(-c2ccc(F)cc2)c1-c1ccncc1` [Example B-0152], for which the “U937 Cell % inhib @ conc.” value in assay [1] (@ 1.0 uM, TNF production) was determined as 24.0% @. In addition, the “P38 alpha kinase % inhib @ conc.” value at human p38 kinase alpha (@ 1.0 uM) was 51.0% @.

`O=C(NCc1[nH]nc(-c2ccc(F)cc2)c1-c1ccncc1)Nc1ccccc1F` [Example B-0162]: the IC50 in assay [1] (setting [3]) is 2.05 µM. In addition, the “P38 alpha kinase % inhib @ conc.” value on human p38 kinase alpha (@ 1.0 uM) came out at 23% @.

For the compound `C[C@@H](NC(=O)[C@H]1CCCN1)c1[nH]nc(-c2ccc(F)cc2)c1-c1ccncc1` [Example B-0428], the “U937 Cell % inhib @ conc. (uM)” value in assay [1] (@ 1.0 uM, TNF production in human U937 cells stimulated with LPS) was 27.0% @. Moreover, the IC50 at human p38 kinase alpha turned out to be 0.99 µM.

As for `CC(NS(=O)(=O)c1cccc2cnccc12)c1[nH]nc(-c2ccc(F)cc2)c1-c1ccncc1` (stereo not shown) [Example B-0490], in assay [1] (setting [4]), the inhibition at 1 µM amounted to 74%. The IC50 at human p38 kinase alpha is 0.91 µM.

Regarding `CC(C)c1cc(C(C)C)c(C(=O)NC(C)c2[nH]nc(-c3ccc(F)cc3)c2-c2ccncc2)c(C(C)C)c1` (stereo not shown) [Example B-0497], the inhibition at 1 µM in assay [1] (setting [4]) is 31%. For the same compound, the IC50 at human p38 kinase alpha was 0.44 µM.

On to `CC(=O)OC(C)(C)C(=O)NC(C)c1[nH]nc(-c2ccc(F)cc2)c1-c1ccncc1` (stereo not shown) [Example B-0535], for which the half-inhibitory concentration (IC50) in assay [1] (Homo sapiens, U-937, TNF production in human U937 cells stimulated with LPS) was 0.87 µM; on human p38 kinase alpha, 0.44 µM.

For `CC(NC(=O)c1cccc(Br)c1)c1[nH]nc(-c2ccc(F)cc2)c1-c1ccncc1` (stereo not shown) [Example B-0539], the inhibition at 1 µM in assay [1] (setting [4]) is 21%. The IC50 on human p38 kinase alpha is 2.84 µM.

Consider `CC(NC(=O)c1ccno1)c1[nH]nc(-c2ccc(F)cc2)c1-c1ccncc1` (stereo not shown) [Example B-0541], for which the inhibition at 1 µM in assay [1] (setting [4]) amounted to 28%. In addition, the IC50 at human p38 kinase alpha was 3.24 µM.

As for `CC(NC(=O)c1ccc(F)c(F)c1F)c1[nH]nc(-c2ccc(F)cc2)c1-c1ccncc1` (stereo not shown) [Example B-0546], the inhibition at 1 µM in assay [1] (setting [4]) amounted to 18%. Further, the IC50 at human p38 kinase alpha was 1.04 µM.

Regarding `CC(C)=CC(=O)NC(C)c1[nH]nc(-c2ccc(F)cc2)c1-c1ccncc1` (stereo not shown) [Example B-0547], in assay [1] (setting [4]), the inhibition at 1 µM was 21%. In addition, at human p38 kinase alpha, the IC50 stood at 1.24 µM.

In the case of `COc1ccc(CC(=O)NC(C)c2[nH]nc(-c3ccc(F)cc3)c2-c2ccncc2)cc1OC` (stereo not shown) [Example B-0548], the inhibition at 1 µM in assay [1] (setting [4]) came out at 28%. Besides, the IC50 on human p38 kinase alpha was determined as 1.77 µM.

With `COc1ccc(CC(=O)NC(C)c2[nH]nc(-c3ccc(F)cc3)c2-c2ccncc2)cc1` (stereo not shown) [Example B-0549], in assay [1] (setting [4]), the inhibition at 1 µM worked out at 22%. Moreover, the IC50 on human p38 kinase alpha turned out to be 2.22 µM.

With `COc1cccc(CC(=O)NC(C)c2[nH]nc(-c3ccc(F)cc3)c2-c2ccncc2)c1` (stereo not shown) [Example B-0550], in assay [1] (setting [4]), the inhibition at 1 µM was determined as 14%. Besides, the IC50 on human p38 kinase alpha is 2.41 µM.

As a reminder, the IC50 is the concentration that gives 50% inhibition.

For the origin of these results see patent US6979686B1, “Substituted pyrazoles as p38 kinase inhibitors” (Pharmacia Corporation, priority 2001, dated 2005).
